Test results from US20070275100A1, “Use of gaseous nitric oxide as an anti-cancer agent” (priority 1998, published 2007).

Columns and labels:
[1] = tested on: normal human fibroblast cells (NHLF); assay: Viability under 25,000 ppm gNO (Example 5), NHLF; assay type: cell-based
Protocol: (§1) After 24 hours, the A549, NCI-H23, NCI-H460, HTB-58, H2170 and H441 cells were treated with 25,000 ppm gNO or air (control) for 1 minute, 3 minutes, 6 minutes, 9 minutes, 10 minutes, 20 minutes, and 30 minutes. Immediately following treatment, the viability of the cells was determined using a colorimetric MTS (3-(4,5-dimethylthiazol-2-yl)-5-(3-carboxymethoxyphenyl)-2-(4-sulfophenyl)-2H-tetrazolium, inner salt) cell proliferation assay (commercially available as the CellTiter 960 Aqueous One Solution Cell Proliferation Assay (MTS) from Promega, Madison, Wis., USA) according to the manufacturer's protocol. Briefly, 20 mL of MTS solution was added to each well and the cells were incubated for 2 hours at 37° C. Absorbance was measured at 490 nm for each well using a micro-plate reader (commercially available from Dynex Technologies, Chantilly, Va., USA). The relative percentage of cell survival (viability) was calculated by dividing the absorbance of treated cells by that of control cells for each experimental time point.
(§2) The purpose of this example is to illustrate the effects on normal human cell lines compared to the effects on cancerous cell lines of high-dosage gNO. The above study was repeated. […]

[2] = tested on: squamous lung cancer cells (H2170); assay: Viability under 25,000 ppm gNO (Example 5), H2170; assay type: cell-based; conditions: Homo sapiens, NCI-H2170, 0.1 h, after 6 minutes, FIG. 8 D
Protocol: as §1, §2

[3] = tested on: HTB-58; assay: MTS cell proliferation assay, 25,000 ppm gNO (Example 4), HTB-58; assay type: cell-based, human
From the text: (§3) The purpose of this example is to illustrate the tumorcidal activity of high-dosage gNO. We examined the cellular sensitivity to 25,000 ppm of gNO on 5 non-small cell lung cancer (NSCLC) cells lines by an MTS cell proliferation assay.
(§4) Human lung cancer cell lines A549, NCI-H23, NCI-H460, HTB-58, H2170, and H441 (commercially available from American Type Culture Collection (“ATCC”), Manassas, Va.) were maintained in culture medium recommended by ATCC. All media were supplemented with 1% penicillin/streptomycin and 10% fetal bovine serum (commercially available from Invitrogen Gibco-BRL, Burlington, Ontario, Canada). […]
as §1, with “Briefly, 20 mL of MTS solution was added to each well and the cells were incubated for 2 hours at 37° C.” left out, “The relative percentage of cell survival (viability) was calculated by dividing the absorbance of treated cells by that of control cells for each experimental time point.” left out

[4] = tested on: Staphylococcus aureus; assay: High dose gNO on Staphylococcus aureus plated on blood agar (Example 2); assay type: cell-based; conditions: 25,000 ppm gNO
From the text: The purpose of this example is to observe the possibility of a novel bactericidal high dose (25,000 ppm) effect of gaseous nitric oxide (gNO) on an ATCC strain of Staphylococcus aureus plated on a blood agar media and determine a time effect of this dosage.
A closed environment treatment chamber was used (see, “A direct nitric oxide gas delivery system for bacterial and mammalian cell cultures,” A. Ghaffari, D. H. Neil, A. Ardakani, J. Road, A. Ghahary, C. C. Miller. Nitric Oxide 12(3):129-140, 2005, herein incorporated by reference in its entirety). The following steps were performed: • 1. Calibrated the AeroNOx analyzer as per standard procedure. • 2. Calibrated the closed environment treatment chamber as per standard procedure. • 3. In a 50 mL tube, known Staphylococcus aureus bacteria in 10 mL Nutrient Broth was grown overnight or for about 12 hours in a shaker incubator. • 4. Measured optical density of grown Staphylococcus aureus using a spectrophotometer set at 600 nm. Used original nutrient broth as a blank. O.D. should be 1.0±10%. • 5. Turned on closed environment treatment chamber. • 6. Labeled three plates: Air, NO+1 minute, NO+3 minutes. • 7. Immersed a sterile cotton swab into the bacterial mixture in the 50 mL tube and shaked off excess liquid. • 8. Swiped one plate entirely in two directions with the swab. • 9. Repeated steps 7-8 using the cotton swab for the remaining […] plates. • 10. Using clean technique, utilized the device to administer either air or 25,000 ppm gNO at a fixed distance and flow towards the inoculated agar media. The agar plate was enclosed in an isolated plastic box with lid. A micropipette through which the gas flowed was affixed to the box lid. The box lid was sealed through the use of plastic wrap. The micropipette was in fluid communication with the gaseous mixing manifold in order to deliver the specified concentrations. • 11. Placed the three treated plates into the laboratory incubator. • 12. Removed plates after 8 hours and placed in a 37° C. incubator for 12-16 hours. • 13. After incubation, recorded results with digital pictures. • 14. Sealed plates with paraffin and refrigerated for storage.

[5] = tested on: normal human bronchial epithelial cells (NHBE); assay: Viability under 25,000 ppm gNO (Example 5), NHBE; assay type: cell-based; conditions: after 6 minutes, FIG. 8 A
Protocol: as §1, §2

[6] = tested on: normal human endothelial lung vascular cells (NHVE); assay: Viability under 25,000 ppm gNO (Example 5), NHVE; assay type: cell-based
Protocol: as §1, §2

[7] = tested on: A549; assay: MTS cell proliferation assay, 25,000 ppm gNO (Example 4), A549; assay type: cell-based, human
From the text: as §3, §4
as §1, with “Briefly, 20 mL of MTS solution was added to each well and the cells were incubated for 2 hours at 37° C.” left out, “The relative percentage of cell survival (viability) was calculated by dividing the absorbance of treated cells by that of control cells for each experimental time point.” left out

[N]=O [gNO, nitric oxide] was tested, and the viability ([1]; after 6 minutes, FIG. 8 C) was “about 30%”, the “viability of normal lung fibroblasts” value ([1]; after 15 minutes of exposure) was 30% and the viability at 25000 ppm [2] was under 10%. For the same compound, the “IC50 (exposure time)” value [3] was “about 7 minutes”, the “effect on the growth of S. aureus” value ([4]; 1 minute) was “profound inhibitory effect” and the “plate appearance after incubation (FIG. 4)” value ([4]; 1 minute of exposure) was “the plate still shows signs of the S. aureus”. The “effect on the growth of S. aureus” value ([4]; 3 minutes) was “possible cidal effect”, the “plate appearance after incubation (FIG. 5)” value ([4]; 3 minutes of exposure) was “the plate shows no signs of the S. aureus” and the viability [5] was “less than 10%”. For the same compound, the “killing of normal endothelial cells” value ([6]; 6 minutes) was “rapidly killed”, the viability ([6]; after 6 minutes, FIG. 8 B) was “less than 10%” and the “IC50 (exposure time)” value [7] was “about 3 minutes”.
